Publication PMC11352258, “The Influence of Betulin and Its Derivatives on Selected Colorectal Cancer Cell Lines’ Viability and Their Antioxidant Systems” (Cells, 2024)
“And” between values parts separate entries of the source, which are not always exact repeats. Equal entries are not always repeated.

Assays:
RKO cells [1] = assay: MTT cytotoxicity assay, RKO; settings: 24 h
Description: (§1) Six colorectal cancer cell lines, RKO, HT29, DLD-1, HCT116, Caco2 and SW1116 (CRL-2577, HTB-38, CCL-221, CCL-247, HTB-37, CCL-233; ATCC, Manassas, VA, USA, respectively, for CRC lines), and one normal cell line, CCD-841CoN (CRL-1790, ATCC, USA), were routinely cultured at 37 °C in a 5% CO2 incubator (Direct Heat CO2; Thermo Scientific, Waltham, MA, USA) in cell line-appropriate culture medium according to the manufacturer’s recommendations. Eagle’s minimum essential medium (EMEM) was used to culture RKO, Caco2 and CCD-841CoN lines, while McCoy’s 5A medium was used for HT29 and HCT116 lines. DLD-1 cells were grown in RPMI-1640 medium, whereas SW1116 cells were maintained in Leibovitz’s L-15 medium. All culture media were supplemented with 10% fetal bovine serum (EuroClone, Milan, Italy), and gentamycin at the concentration […] (BioWhittaker, Lonza, Basel, Switzerland) was also applied to prevent culture contamination.
(§2) For this purpose, cells were exposed to the test compound for 24 h at concentrations of 0.1, 1, 10, 20, 50 and 100 μg/mL. Control cells were not treated with the compounds. MTT (0.25 mg/mL) was then added to the cultures and incubated for 3 h at 37 °C. After a time, the cells were washed with phosphate buffered saline (PBS), and next, formazan dye was dissolved in 100 μL of dimethyl sulfoxide (Sigma-Aldrich, St Louis, MO, USA). Absorbance was measured at 540 nm using a Wallac 1420 VICTOR microplate reader (PerkinElmer, Waltham, MA, USA).

HT29 cells = assay: MTT cytotoxicity assay, HT29; format: cell-based; settings: Homo sapiens, HT-29; HT29, MTT, 24 h; read-out: IC50 value
Source text: (§3) Control cells were not treated with the compounds.

DLD-1 cells = assay: MTT cytotoxicity assay, DLD-1; format: cell-based; settings: Homo sapiens; DLD-1, MTT, 24 h; read-out: IC50 value
Source text: as §3

HCT116 cells = assay: MTT cytotoxicity assay, HCT116; format: cell-based; settings: Homo sapiens; HCT 116, MTT, 24 h; read-out: IC50 value
Source text: as §3

Caco2 cells = assay: MTT cytotoxicity assay, Caco2; format: cell-based; settings: Homo sapiens, Caco-2; Caco2, MTT, 24 h; read-out: IC50 value
SW1116 cells [2] = assay: MTT cytotoxicity assay, SW1116
Description: as §1, §2

CCD-841CoN cells = assay: cells; format: cell-based; settings: Homo sapiens; CCD-841CoN normal cells, MTT, 24 h; read-out: IC50 value
Source text: as §3

RKO cells [3] = assay: Total antioxidant capacity (ABTS+), RKO; format: cell-based; settings: 10 µg/mL, 24 h
Description: (§4) In addition, two colorectal cancer cell lines, RKO and SW1116, were distinguished based on a different response to the EB5 derivative. To perform subsequent analyses, the selected CRC lines were treated with EB5 derivative at a concentration of 10 µg/mL for 24 h. Untreated cells were used as a negative control. Three biological replicates were performed.
(§5) To examine the antioxidant capacity of the cells as well as lipid peroxidation and to evaluate the activity of antioxidant enzymes, the cells were suspended in lysis buffer (containing 4 mg of […]™ Protease Inhibitor Cocktail and 10 µL of Phosphatase Inhibitor Cocktail 3 in 1 mL of PBS; Sigma-Aldrich, St Louis, MO, USA). Subsequently, the cells were placed in liquid nitrogen for 30 min, followed by storage at −80 °C until further analysis.
The ABTS+ radical cation was used to assess the total antioxidant capacity (TAC) of the tested cells. The principle of the method is based on the reduction of the formed blue-green chromophore ABTS+ as a result of the reaction of ABTS (Sigma-Aldrich, St Louis, MO, USA) with potassium persulphate (Sigma-Aldrich, St Louis, MO, USA). The degree of decolorization of the ABTS+ radical cation depends on the antioxidant activity of the cells and is determined as a function of concentration and time in relation to Trolox reactivity (TEAC-Trolox equivalent antioxidant capacity).

RKO cells [4] = assay: Lipid peroxidation, MDA assay, RKO; format: cell-based; settings: 10 µg/mL, 24 h
Description: (§6) In addition, two colorectal cancer cell lines, RKO and SW1116, were distinguished based on a different response to the EB5 derivative. […] Untreated cells were used as a negative control. Three biological replicates were performed. To examine the antioxidant capacity of the cells as well as lipid peroxidation and to evaluate the activity of antioxidant enzymes, the cells were suspended in lysis buffer (containing 4 mg of […]™ Protease Inhibitor Cocktail and 10 µL of Phosphatase Inhibitor Cocktail 3 in 1 mL of PBS; Sigma-Aldrich, St Louis, MO, USA). Subsequently, the cells were placed in liquid nitrogen for 30 min, followed by storage at −80 °C until further analysis. To assess the level of lipid peroxidation, the Malondialdehyde Assay Kit (Aoxre BioSciences, Burlingame, CA, USA) was used, according to the manufacturer’s recommendations.

SW1116 cells [5] = assay: Lipid peroxidation, MDA assay, SW1116; format: cell-based; settings: SW1116, 10 µg/mL, 24 h
Description: as §6

[6] = tested on: superoxide dismutase (SOD) activity in SW1116 cells; assay: SOD activity in SW1116 cells; format: cell-based; settings: SW1116, 10 µg/mL, 24 h
Description: as §4, §5
Superoxide dismutase (SOD), glutathione peroxidase (GPx) and catalase (CAT) activities were assessed using a commercially purchased Cayman Chemicals Superoxide Dismutase Assay Kit, a Cayman Chemicals Glutathione Peroxidase Assay Kit and a Catalase Assay Kit (Cayman Chemicals, Ann Arbor, MI, USA), respectively, according to the manufacturer’s recommendations and based on a previous study. […] The level of change in absorbance was measured spectrophotometrically at the appropriate wavelength for the assay, i.e., for SOD in the range 440–460 nm, for GPx at 340 nm and for CAT at 540 nm.

[7] = tested on: catalase (CAT) activity in SW1116 cells; assay: CAT activity in SW1116 cells; format: cell-based; settings: SW1116, 10 µg/mL, 24 h
Description: as §4, §5
Superoxide dismutase (SOD), glutathione peroxidase (GPx) and catalase (CAT) activities were assessed using a commercially purchased Cayman Chemicals Superoxide Dismutase Assay Kit, a Cayman Chemicals Glutathione Peroxidase Assay Kit and a Catalase Assay Kit (Cayman Chemicals, Ann Arbor, MI, USA), respectively, according to the manufacturer’s recommendations and based on a previous study. The cell supernatant from previously prepared cell lysates of the tested lines provided material for further analyses. The level of change in absorbance was measured spectrophotometrically at the appropriate wavelength for the assay, i.e., for SOD in the range 440–460 nm, for GPx at 340 nm and for CAT at 540 nm.

[8] = tested on: SOD1 gene expression in RKO cells; assay: SOD1 mRNA, real-time RT-qPCR, RKO; format: cell-based; settings: 10 µg/mL, 24 h
Description: as §4
(§7) Total RNA from treated cells was extracted using TRIzol reagent (Sigma-Aldrich, St Louis, MO, USA) according to the manufacturer’s instructions. The obtained RNA was assessed qualitatively and quantitatively by agarose gel electrophoresis and by spectrophotometric measurement using MaestroNano MN-913 (MaestroGen Inc., Las Vegas, NV, USA), respectively. The obtained extracts provided the starting material for the assessment of genes changes at the mRNA level.
(§8) Changes in the expression of SOD1, SOD2, CAT and GPX3 genes involved in antioxidant systems were assessed by real-time RT-qPCR using a LightCycler® 480 System apparatus (Roche, Basel, Switzerland). A commercially purchased GoTaq® 1-Step RT-qPCR System (Promega, Madison, WI, USA) was used, while the primers and reaction conditions were the same as in the previous study performed by Kruszniewska-Rajs et al.. GAPDH was used as the reference gene. The mRNA expression level studied genes were then determined by the 2^−ΔCt relative quantification method. All samples were tested in triplicate. The specificity of the reaction was evaluated based on the melting temperature curve, as well as using electrophoresis of the amplification products in a 2% agarose gel.

[9] = tested on: SOD1 gene expression in SW1116 cells; assay: SOD1 mRNA, real-time RT-qPCR, SW1116; format: cell-based; settings: SW1116, 10 µg/mL, 24 h
Description: as §4, §7, §8

[10] = tested on: SOD2 gene expression in SW1116 cells; assay: SOD2 mRNA, real-time RT-qPCR, SW1116; format: cell-based; settings: SW1116, 10 µg/mL, 24 h
Description: as §4, §7, §8

[11] = tested on: CAT gene expression in RKO cells; assay: CAT mRNA, real-time RT-qPCR, RKO; format: cell-based; settings: 10 µg/mL, 24 h
Description: as §4, §7, §8

[12] = tested on: CAT gene expression in SW1116 cells; assay: CAT mRNA, real-time RT-qPCR, SW1116; format: cell-based; settings: SW1116, 10 µg/mL, 24 h
Description: as §4, §7, §8

For `C=C(C)[C@@H]1CC[C@]2(CO)CC[C@]3(C)[C@H](CC[C@@H]4[C@@]5(C)CC[C@H](O)C(C)(C)[C@@H]5CC[C@]43C)[C@@H]12` [Betulin, lup-20(29)-ene-3β,28-diol], the “decrease in the viability” value (RKO cells [1]; 10 µg/mL) was ≤ 50%, the viability at 10 µg/mL (RKO cells [1]; Homo sapiens) was ≥ 50% and the IC50 (RKO cells [1]; Homo sapiens, read-out: IC50 value) was 11.2 µg/mL and 25.2 µM. For the same compound, the IC50 (HT29 cells) was 8.49 µg/mL and 20.1 µM, the IC50 (DLD-1 cells) was 4.29 µg/mL and 10.2 µM and the IC50 (HCT116 cells) was 4.63 µg/mL and 11 µM. For the same compound, the IC50 (Caco2 cells) was 11.2 µg/mL and 26.5 µM, the viability at 10 µg/mL (SW1116 cells [2]; Homo sapiens, SW 1116, 24 h) was ≥ 50% and the IC50 (SW1116 cells [2]; Homo sapiens, SW 1116, 24 h, read-out: IC50 value) was 9.77 µg/mL and 23.1 µM. The “decrease in the viability” value (SW1116 cells [2]; SW1116, 10 µg/mL, 24 h) was ≤ 50%, the IC50 (CCD-841CoN cells) was 5.26 µg/mL and 12.4 µM and the “reduction in TAC compared to the control cells” value (RKO cells [3]) was “about 26.4%”. The “increase in MDA levels compared to the control cells” value (RKO cells [4]) was “about 73.1%”, the “MDA level compared to the control” value (SW1116 cells [5]) was “did not cause changes” and the “increase in SOD activity compared to the untreated cells” value [6] was “about 32.3%”. The “catalase activity compared to the control” value [7] was “did not cause changes”, the “SOD1 gene expression vs. cisplatin-treated cells” value [8] was “decrease in SOD1 gene expression” and the “SOD1 gene expression vs. EB5 derivative” value [9] was “statistically significant difference”. The “SOD1 gene expression vs. cisplatin” value [9] was “statistically significant difference”, the “SOD1 gene expression vs. non-treated cells” value [9] was “statistically significant decrease in mRNA expression” and the “SOD1 gene expression vs. non-treated cells” value ([9]; listed as B) was “statistically significant difference”. The “SOD2 gene expression vs. cisplatin” value [10] was “Decreased SOD2 gene expression”, the “CAT gene expression vs. untreated cells” value [11] was “No statistically significant changes” and the “CAT gene expression vs. EB5 derivative” value [12] was “decrease in expression was higher”. The “CAT gene expression vs. cisplatin” value [12] was “decrease in expression was higher” and the “CAT gene expression vs. untreated cells” value [12] was “statistically significant decrease in CAT gene expression”.
